Source: US3995061A, “Pharmaceutical composition and method of using the same” (Chugai Seiyaku Kabushiki Kaisha, priority 1974, dated 1976)

What was measured:
[1] = Acute toxicity, rat; details: in vivo, ip, male
Text: (§1) Acute toxicity of the ascochlorin derivatives was observed by the use of Wister-Imamichi strain male rats weighing 230 ± 30 g and ddY strain male and female mice (5 weeks old) weighing 20 ±3 g which were divided into groups of 10 members each. Japanese native male rabbits weighing 2 kg ± 300 g which were divided into groups of five members each were also used. The test animals were orally or intraperitoneally administered with a different ascochlorin derivative as a suspension in 5% gum arabic aqueous solution, and the toxicity was compared with that of control in which ascochlorin was used.

[2] = Acute toxicity, mouse; details: in vivo, ip, male
Text: as §1

[3] = tested on: blood platelet; experiment: Aggregation inhibition activity of blood platelet (ADP-induced, platelet rich plasma of orally dosed rats); assay type: in vivo, Wister-Imamich strain male rats; details: rat, 20 mg/kg oral, 6 hours; adenosine-5'-diphosphate 10^-5 M in platelet rich plasma
Procedure: In this Example Wister-Imamich strain male rats weighing 230 ± 30 g which had been bred with the use of a commercial chow, CLEA CE-2 were used.
The rats were divided into groups of five members each, and orally administered with a different ascochlorin derivative as a suspension in 2% gum arabic aqueous solution in a dose of 20 mg/kg.body weight. Six hours after the administration, the blood of each rat was sampled from the heart and after the addition of citric acid, the blood sample was centrifuged at 1,500 r.p.m. for 10 minutes to obtain platelet rich plasma. The anti-aggregation effect when the concentration of adenosine-5'-diphosphatein the platelet rich plasma is ultimately 10^^-5 M is shown in Table II.
As positive controls, ascochlorin, ethyl-α-(p-chlorophenoxy) isobutylate and acetyl salicyclic acid were used. The aggregation inhibition ratio was evaluated in percent by comparing the increase of transmission rate caused by the addition of adenosin-5'-diphosphate to platelet rich plasma of the control group (no medication) with that caused on the groups administered with an ascochlorin derivative which is calculated for 100.

[4] = tested on: Cholesterol in serum; experiment: Serum cholesterol lowering activity in rats on high-fat feed, single oral dose; assay type: in vivo, Wister-Imamich strain male rats; details: rat, 75 mg/kg oral, 6 hours after administration
Text: The cholesterol lowering activity of the ascochlorin derivatives of this invention was observed by the use of Wister-Imamich strain male rats weighing 230 ± 30 g which had been bred with the use of high-fat feed comprising 1000 g of powdery chow CLEA CE-2 (sold by NIHON CLEA KABUSHIKI KAISHA) admixed with 10 g of cholesterol, 95 g of hydrogenated coconut oil, 2 g of cholic acid, 150 g of milk casein and 671 g of sucrose.
The rats were divided into groups of five members each, and orally administered with a different ascochlorin derivative as a suspension in gum arabic aqueous solution in a dose of 75 mg/kg.body weight. The rats were kept from eating food, and 6 hours after the administration, the blood of each rat was sampled from its heart. The total amount of cholesterol in serum was determined by a modified Zurkowski method (Clinical Chemistry, 10, 451, 1964) with the use of a colorimeter for blood analysis (sold by KYOTO DAIICHI KAGAKU).

[5] = tested on: Serum Lipid; experiment: Hypolipidemic activity: change in level of serum lipid, 30 days, high-fat feed; assay type: in vivo, Wister strain rats; details: rat
[6] = tested on: Lipid in liver and aorta; experiment: Hypolipidemic activity: change of lipid level in organs and aorta abdominalis, 30 days, high-fat feed; assay type: in vivo, Wister strain rats; details: rat, 45.0 mg/kg oral
Procedure: Wister strain rats weighing 150 ± 20 g were divided into groups of 10 members each and bred with high-fat feed, the same as that used in Example 1. The rats were orally administered ascochlorin, 4-O-methylascochlorin or ethyl-α-(p-chlorophenoxy) isobutylate in a predetermined dose every morning for 30 days. Six hours after the last administration, liver and aorta of each rat were taken out and lipid level in the organs of each of the rats were determined. Lipid present in the liver and aorta was extracted with methanol-chloroform (1:1) by allowing it to stand overnight and the extract was assayed as to lipid level.

[7] = 45.0 mg/kg oral, average ± standard error

CCOc1c(Cl)c(C)c(C=O)c(O)c1C/C=C(C)/C=C/C1(C)C(C)CCC(=O)C1C (stereo not shown) [4-O-ethylascochlorin]
LD50 [1]: 5100 mg/kg | LD50 [2]: 5600 mg/kg | Aggregation Inhibition Ratio [3]: 55.3% | Cholesterol in serum [4]: 82.2 mg/dL

CC(/C=C/C1(C)C(C)CCC(=O)C1C)=C\Cc1c(O)c(C=O)c(C)c(Cl)c1OCC(C)C (stereo not shown) [4-O-isobutylascochlorin]
Aggregation Inhibition Ratio [3]: 48.8% | Cholesterol in serum [4]: 88.5 mg/dL

CC(/C=C/C1(C)C(C)CCC(=O)C1C)=C\Cc1c(O)c(C=O)c(C)c(Cl)c1OC(C)C (stereo not shown) [4-O-isopropylascochlorin]
Aggregation Inhibition Ratio [3]: 57.2% | Cholesterol in serum [4]: 85.6 mg/dL

CCCCOc1c(Cl)c(C)c(C=O)c(O)c1C/C=C(C)/C=C/C1(C)C(C)CCC(=O)C1C (stereo not shown) [4-O-n-butylascochlorin]
Aggregation Inhibition Ratio [3]: 53.7% | Cholesterol in serum [4]: 86.9 mg/dL

CCCOc1c(Cl)c(C)c(C=O)c(O)c1C/C=C(C)/C=C/C1(C)C(C)CCC(=O)C1C (stereo not shown) [4-O-n-propylascochlorin]
Aggregation Inhibition Ratio [3]: 56.5% | Cholesterol in serum [4]: 84.3 mg/dL

CCC(C)Oc1c(Cl)c(C)c(C=O)c(O)c1C/C=C(C)/C=C/C1(C)C(C)CCC(=O)C1C (stereo not shown) [4-O-sec-butylascochlorin]
Aggregation Inhibition Ratio [3]: 51.1% | Cholesterol in serum [4]: 89.1 mg/dL

CC(/C=C/C1(C)C(C)CCC(=O)C1C)=C\Cc1c(O)c(C=O)c(C)c(Cl)c1OC(C)(C)C (stereo not shown) [4-O-tert-butylascochlorin]
Aggregation Inhibition Ratio [3]: 60.5% | Cholesterol in serum [4]: 82.7 mg/dL

CC(=O)Oc1ccccc1C(=O)O [acetyl salicylic acid, reference compound]
Aggregation Inhibition Ratio [3]: 73.1%

CCOC(=O)C(C)(C)Oc1ccc(Cl)cc1 [ethyl-α-(p-chlorophenoxy) isobutylate, reference compound]
Serum Cholesterol, increasing or reducing ratio based on the control ([5]; 45.0 mg/kg oral): +7.9 | Serum Free fatty acid, increasing or reducing ratio based on the control ([5]; 45.0 mg/kg oral): -10.1 | Serum Phospholipid, increasing or reducing ratio based on the control ([5]; 45.0 mg/kg oral): -0.7 | Serum Triglyceride, increasing or reducing ratio based on the control ([5]; 45.0 mg/kg oral): -9.2 | Serum β-Lipoprotein, increasing or reducing ratio based on the control ([5]; 45.0 mg/kg oral): -3.7 | Serum Cholesterol [5, 7]: 115.3 ± 5.5 mg/dL | Serum Free fatty acid [5, 7]: 45.2±1.6 μ eq./dl | Serum Phospholipid [5, 7]: 135.9 ± 13.6 mg/dL | Serum Triglyceride [5, 7]: 72.1 ± 4.4 mg/dL | Serum β-Lipoprotein [5, 7]: 738 ± 46 mg/dL | lowering of lipids in serum, liver and aorta (such effects) ([5]; oral, groups of Tables IV and V): such effects were not observed | Aggregation Inhibition Ratio [3]: 0% | Cholesterol in Liver, increasing or reducing ratio based on the control [6]: +20.6 | Cholesterol in Tunica intima of aorta abdominalis, increasing or reducing ratio based on the control [6]: -14.7 | Phospholipid in Liver, increasing or reducing ratio based on the control [6]: +13.2 | Triglyceride in Liver, increasing or reducing ratio based on the control [6]: +10.7 | Cholesterol in Liver ([6]; average ± standard error): 41.0 ± 4.5 mg/g | Phospholipid in Liver ([6]; average ± standard error): 79.5 ± 3.1 mg/g | Triglyceride in Liver ([6]; average ± standard error): 24.2 ± 2.2 mg/g | Cholesterol in serum [4]: 103.8 mg/dL
